Reference: patent US8524866B2, “Antibodies to the alpha-7 nicotinic receptors and methods of treating inflammatory disorders with the same” (The Feinstein Institute for Medical Research, priority 2005, dated 2013)

Target: α-bungarotoxin-binding nicotinic receptors on primary human macrophages (Homo sapiens, UniProt P36544)
Sequence (P36544 23-502): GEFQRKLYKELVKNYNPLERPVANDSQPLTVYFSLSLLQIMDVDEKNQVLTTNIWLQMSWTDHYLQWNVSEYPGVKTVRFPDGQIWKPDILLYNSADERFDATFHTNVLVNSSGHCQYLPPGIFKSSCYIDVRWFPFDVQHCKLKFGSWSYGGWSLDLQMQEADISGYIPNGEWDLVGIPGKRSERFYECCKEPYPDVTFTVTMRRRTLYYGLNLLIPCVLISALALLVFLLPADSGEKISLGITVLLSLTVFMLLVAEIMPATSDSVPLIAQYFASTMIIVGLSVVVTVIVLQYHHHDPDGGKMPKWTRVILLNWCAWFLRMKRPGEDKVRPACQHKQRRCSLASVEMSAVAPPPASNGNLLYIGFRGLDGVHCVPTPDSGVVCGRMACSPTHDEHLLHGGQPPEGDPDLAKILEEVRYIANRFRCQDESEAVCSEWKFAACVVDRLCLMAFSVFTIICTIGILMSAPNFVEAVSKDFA

Molecule | effect on intensity of α-bungarotoxin binding | binding on the macrophage surface
CN1CCCC1c1cccnc1 (centres unmarked) [Nicotine] | markedly reduced | 
α-bungarotoxin |  | Strong binding
